IC50 data for eight compounds are collected here from patent US20130210846A1, “USE OF NOVEL PAN-CDK INHIBITORS FOR TREATING TUMORS” (BAYER INTELLECTUAL PROPERTY GMBH, priority 2010, published 2013).

The subject of one assay is MCF7. The assay can be described thus: Proliferation assay MCF7. It counts as cell-based, human. To be noted: MCF7, estrogen receptor-positive mamma carcinoma, 4 days, crystal violet. The procedure:
(§1) Cultivated human tumor cells (originally obtained from ATCC, HeLa-MaTu and HeLa-MaTu-ADR, originally obtained from Epo GmbH, Berlin, Germany) were plated at a density of 1000 to 5000 cells/measuring point, depending on the growth rate of the cell line, in a 96-well multititer plate in 200 μl of growth medium (DMEM/HAMS F12, 2 mM L-glutamine, 10% fetal calf serum). After 24 hours the cells of one plate (zero-point plate) were stained with crystal violet (see below), whereas the medium of the other plates was replaced with fresh culture medium (200 μl), to which the test substances had been added at various concentrations (0 μM, and in the range 0.01-30 μM; the final concentration of the solvent dimethyl sulfoxide was 0.5%). The cells were incubated for 4 days in the presence of the test substances. Cellular proliferation was determined by staining the cells with crystal violet: the cells were fixed by adding 20 μl/measuring point of an 11% glutaraldehyde solution for 15 min at room temperature. After washing the fixed cells with water three times, the plates were dried at room temperature. The cells were stained by adding 100 μl/measuring point of a 0.1% crystal violet solution (pH adjusted to pH3 by adding acetic acid). After washing the stained cells with water three times, the plates were dried at room temperature. The dye was dissolved by adding 100 μl/measuring point of a 10% acetic acid solution. The extinction was determined photometrically at a wavelength of 595 nm. The percentage change in cell growth was calculated by standardization of the measured values to the extinction values of the zero-point plate (=0%) and the extinction of the untreated (0 μM) cells (=100%). The measured data were standardized to 0% inhibition (cell proliferation without inhibitor) and 100% inhibition (zero-point plate). The IC50 values were determined by means of a 4-parameter fit using the company's own software.
(§2) The substances were examined in the following cell lines which, in an exemplary manner, represent the stated indications: […]

The next assay concerns DU145. The assay can be described thus: Proliferation assay DU145. To be noted: DU145, prostate carcinoma, 4 days, crystal violet. It counts as cell-based, human. The method, then: as §1, §2
In a further assay the test system is NCI-H460. The assay can be described thus: Proliferation assay NCI-H460. The format is cell-based, human. To be noted: NCI-H460, non-small-cell bronchial carcinoma, 4 days, crystal violet. The procedure: as §1, §2
The target of assay [1] is T1, VEGF receptor tyrosine kinase-2 (VEGF-R2) (Homo sapiens, UniProt P35968).
T1 construct: GST; made in house; host or cells: baculovirus-infected insect cells (Sf9)
The assay can be described thus: VEGF receptor-2 kinase assay (Assay 3). It counts as biochemical. Conditions: 8 μM ATP, poly-(Glu4Tyr), 10 min 22° C.; read-out: VEGF-R2 (Assay 3) Concentration for half-maximal inhibition of the enzyme activity, IC50. The method, then:
Recombinant VEGF receptor tyrosine kinase-2 was purified as GST fusion protein from baculovirus-infected insect cells (Sf9). Poly-(Glu4Tyr), used as kinase substrate, was purchased from Sigma.
VEGF receptor tyrosine kinase (90 ng/measuring point) was incubated for 10 min at 22° C. in the presence of various concentrations of test substances (0 μM, and within the range 0.001-30 μM) in 30 μl assay buffer [40 mM Tris/HCl pH5.5, 10 mM MgCl2, 1 mM MnCl2, 3 μM Na ortho-vanadate, 1.0 mM dithiothreitol, 8 μM adenosine triphosphate (ATP), 0.96 μg/measuring point poly-(Glu4Tyr), 0.2 μCi/measuring point ^33P-gamma ATP, 1.4% dimethyl sulfoxide]. The reaction was stopped by adding EDTA solution (250 mM, pH 8.0, 15 μl/measuring point).
(§3) From each reaction mixture, 15 μl was applied to P30 filter strips (from Wallac), and unincorporated ^33P-ATP was removed by washing the filter strips three times, for 10 min each time, in 0.5% phosphoric acid. After drying the filter strips for 1 hour at 70° C., the filter strips were covered with scintillator strips (MeltiLex™ A, from Wallac) and stoved for 1 hour at 90° C. The amount of incorporated ^33P (substrate phosphorylation) was determined by scintillation measurement in a gamma-radiation measuring instrument (Wallac). The measured data were standardized to 0% inhibition (enzyme reaction without inhibitor) and 100% inhibition (all assay components except enzyme). The IC50 values were determined by means of a 4-parameter fit using the company's own software.

Another assay deals with HeLa-MaTu. The assay can be described thus: Proliferation assay HeLa-MaTu. The format is cell-based, human. To be noted: cervix carcinoma, 4 days, crystal violet. The procedure: as §1, §2
Another assay has as its system Caco-2. The assay can be described thus: Proliferation assay Caco-2. It counts as cell-based, human. Conditions: Caco-2, colon/rectum carcinoma, 4 days, crystal violet. The procedure:
as §1, §2

The next assay deals with HeLa-MaTu-ADR. The assay can be described thus: Proliferation assay HeLa-MaTu-ADR. The format is cell-based, human. To be noted: cervix carcinoma, 4 days, crystal violet. The method, then: as §1, §2
The target in a further assay is T2, CDK1/CycB (Homo sapiens, UniProt P06493).
T2 construct: purchased ProQinase GmbH, Freiburg, Germany; host or cells: baculovirus-infected insect cells (Sf9)
The assay can be described thus: CDK1/CycB kinase assay (Assay 1). The format is biochemical. Conditions: 0.5 μM ATP, histon IIIS, 10 min 22° C.; read-out: CDK1/CycB (Assay 1) Concentration for half-maximal inhibition of the enzyme activity, IC50. The procedure:
Recombinant CDK1 and CycB-GST fusion proteins, purified from baculovirus-infected insect cells (Sf9), were purchased from ProQinase GmbH, Freiburg, Germany. The histon HIS used as kinase substrate is commercially available from Sigma.
CDK1/CycB (200 ng/measuring point) was incubated for 10 min at 22° C. in the presence of various concentrations of test substances (0 μM, and within the range 0.01-100 μM) in assay buffer [50 mM Tris/HCl pH8.0, 10 mM MgCl2, 0.1 mM Na ortho-vanadate, 1.0 mM dithiothreitol, 0.5 μM adenosine triphosphate (ATP), 10 μg/measuring point histon IIIS, 0.2 μCi/measuring point ^33P-gamma ATP, 0.05% NP40, 1.25% dimethyl sulfoxide]. The reaction was stopped by adding EDTA solution (250 mM, pH 8.0, 15 μl/measuring point).
as §3, with “μl were” for “μl was”

A further assay addresses T3, CDK2/CycE (Homo sapiens, UniProt P24941).
T3 construct: purchased ProQinase GmbH, Freiburg, Germany; host or cells: baculovirus-infected insect cells (Sf9)
The assay can be described thus: CDK2/CycE kinase assay (Assay 2). The format is biochemical. Conditions: 0.5 μM ATP, histon IIIS, 10 min 22° C.; read-out: CDK2/CycE (Assay 2) Concentration for half-maximal inhibition of the enzyme activity, IC50. The procedure:
Recombinant CDK2 and CycE-GST fusion proteins, purified from baculovirus-infected insect cells (Sf9), were purchased from ProQinase GmbH, Freiburg, Germany. Histon HIS, used as kinase substrate, was purchased from Sigma.
The reaction was stopped by adding EDTA solution (250 mM, pH 8.0, 15 μl/measuring point).
as §3, with “The measured data were standardized to 0% inhibition (enzyme reaction without inhibitor) and 100% inhibition (all assay components except enzyme).” left out

Another assay deals with HCT116. The assay can be described thus: Proliferation assay HCT116. It counts as cell-based. To be noted: Homo sapiens, HCT-116, 96 h; HCT116, colon/rectum carcinoma; 4 days, crystal violet. The procedure: as §1, §2
For a further assay, the system named is HeLa. The assay can be described thus: Proliferation assay HeLa. To be noted: Homo sapiens, 96 h, cervix carcinoma, 4 days, crystal violet. It counts as cell-based. The method, then: as §1, §2

T2 sequence (P06493 whole entry): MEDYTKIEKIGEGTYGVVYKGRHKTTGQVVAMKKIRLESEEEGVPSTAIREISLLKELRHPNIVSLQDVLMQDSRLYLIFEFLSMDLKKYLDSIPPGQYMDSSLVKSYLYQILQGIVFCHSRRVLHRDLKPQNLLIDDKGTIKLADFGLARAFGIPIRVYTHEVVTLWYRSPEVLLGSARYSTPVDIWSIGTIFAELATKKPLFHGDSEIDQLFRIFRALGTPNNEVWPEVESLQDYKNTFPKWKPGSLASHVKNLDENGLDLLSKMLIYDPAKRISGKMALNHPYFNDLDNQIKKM
T2 sequence (P14635 whole entry partner): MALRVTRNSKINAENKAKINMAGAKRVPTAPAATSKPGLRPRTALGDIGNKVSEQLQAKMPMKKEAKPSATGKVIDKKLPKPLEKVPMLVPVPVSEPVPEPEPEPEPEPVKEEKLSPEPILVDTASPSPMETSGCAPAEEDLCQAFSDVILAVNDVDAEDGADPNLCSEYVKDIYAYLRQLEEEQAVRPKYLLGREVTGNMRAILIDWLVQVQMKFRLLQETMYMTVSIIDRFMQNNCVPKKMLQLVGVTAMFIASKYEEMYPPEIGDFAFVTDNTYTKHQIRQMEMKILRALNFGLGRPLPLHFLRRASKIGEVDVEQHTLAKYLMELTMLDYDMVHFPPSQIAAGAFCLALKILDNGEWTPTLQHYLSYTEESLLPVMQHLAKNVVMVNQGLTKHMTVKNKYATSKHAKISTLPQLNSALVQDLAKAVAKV
T1 sequence (P35968 20-1356, species assumed): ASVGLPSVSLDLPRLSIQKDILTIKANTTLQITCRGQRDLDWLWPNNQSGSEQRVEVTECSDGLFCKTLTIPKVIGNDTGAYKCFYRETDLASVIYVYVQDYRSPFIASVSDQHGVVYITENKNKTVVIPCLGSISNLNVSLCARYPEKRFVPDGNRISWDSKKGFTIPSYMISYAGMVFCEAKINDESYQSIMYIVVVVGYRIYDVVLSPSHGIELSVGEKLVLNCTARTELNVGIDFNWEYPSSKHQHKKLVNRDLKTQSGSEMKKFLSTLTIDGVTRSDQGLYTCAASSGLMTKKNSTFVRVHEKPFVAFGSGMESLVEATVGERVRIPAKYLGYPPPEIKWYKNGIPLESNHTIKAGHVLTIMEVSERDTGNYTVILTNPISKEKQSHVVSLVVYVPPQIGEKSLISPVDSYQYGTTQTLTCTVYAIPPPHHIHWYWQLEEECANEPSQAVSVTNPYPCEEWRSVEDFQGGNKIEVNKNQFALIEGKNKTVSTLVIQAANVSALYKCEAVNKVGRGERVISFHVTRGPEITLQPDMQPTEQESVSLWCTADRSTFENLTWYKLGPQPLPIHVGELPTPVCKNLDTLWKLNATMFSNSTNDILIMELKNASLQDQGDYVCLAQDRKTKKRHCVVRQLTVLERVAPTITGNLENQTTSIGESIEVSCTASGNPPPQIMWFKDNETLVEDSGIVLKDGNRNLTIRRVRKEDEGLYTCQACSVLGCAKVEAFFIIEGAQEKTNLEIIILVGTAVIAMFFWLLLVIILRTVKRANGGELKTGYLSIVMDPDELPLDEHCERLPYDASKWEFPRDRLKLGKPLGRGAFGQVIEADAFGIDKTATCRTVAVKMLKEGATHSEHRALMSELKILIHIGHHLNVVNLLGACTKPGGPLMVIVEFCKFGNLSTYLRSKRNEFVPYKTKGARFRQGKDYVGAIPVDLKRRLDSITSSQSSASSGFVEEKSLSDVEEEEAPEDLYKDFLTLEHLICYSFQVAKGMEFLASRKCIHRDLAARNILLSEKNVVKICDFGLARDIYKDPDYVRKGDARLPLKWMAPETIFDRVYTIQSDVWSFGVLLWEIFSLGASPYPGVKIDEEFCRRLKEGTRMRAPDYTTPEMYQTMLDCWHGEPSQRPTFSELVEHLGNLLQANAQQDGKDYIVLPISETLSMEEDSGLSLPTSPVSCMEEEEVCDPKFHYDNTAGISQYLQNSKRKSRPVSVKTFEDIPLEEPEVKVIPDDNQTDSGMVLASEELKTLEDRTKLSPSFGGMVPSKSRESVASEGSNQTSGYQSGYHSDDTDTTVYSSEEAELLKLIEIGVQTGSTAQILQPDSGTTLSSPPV

For `C[C@@H](O)[C@@H](C)Oc1nc(Nc2ccc(S(=N)(=O)C3CC3)cc2)ncc1C(F)(F)F` (mixture of isomers) [Example 1-SI-1, (RS)—S-Cyclopropyl-S-(4-{[4-{[(1R,2R)-2-hydroxy-1-methylpropyl]oxy}-5-(trifluoromethyl)-pyrimidin-2-yl]amino}phenyl)sulfoximide], the IC50 amounted to 48 nM with MCF7; 45 nM in the assay on DU145; 48 nM in the assay on NCI-H460; 114 nM in [1]; 13 nM in the assay on HeLa-MaTu (Homo sapiens, 96 h); 80 nM in the assay with Caco-2. The compound also gave an IC50 in the assay with HeLa-MaTu-ADR of 35 nM.

`C[C@@H](Oc1nc(Nc2ccc(S(C)(=N)=O)cc2)ncc1C(F)(F)F)C(C)(C)O` (mixture of isomers) [Example 3, (RS)—S-(4-{[4-{[(R)-2-Hydroxy-1,2-dimethylpropyl]oxy}-5-(trifluoromethyl)pyrimidin-2-yl]-amino}phenyl)-S-methylsulfoximide]: the IC50 with MCF7 (Homo sapiens, MCF7, 96 h) was found to be 70 nM; in the assay on DU145 (Homo sapiens, DU-145, 96 h), 76 nM; on CDK1/CycB, 13 nM; with NCI-H460 (Homo sapiens, NCI-H460, 96 h), 113 nM; with HeLa-MaTu (Homo sapiens, 96 h), 70 nM; in the assay on Caco-2 (Homo sapiens, Caco-2, 96 h), 98 nM. The IC50 amounted to 63 nM with HeLa-MaTu-ADR (Homo sapiens, 96 h) and 10 nM on CDK2/CycE.

Regarding `C[C@@H](Nc1nc(Nc2ccc(S(=N)(=O)C3CC3)cc2)ncc1C(F)(F)F)C(C)(C)O` (mixture of isomers) [Example 5-SI-1, (RS)—S-Cyclopropyl-S-(4-{[4-{[(R)-2-hydroxy-1,2-dimethylpropyl]amino}-5-(trifluoromethyl)-pyrimidin-2-yl]amino}phenyl)sulfoximide], the IC50 with MCF7 (Homo sapiens, MCF7, 96 h) was 33 nM; in the assay with DU145, 107 nM; on CDK1/CycB it was 25 nM; in the assay with NCI-H460 it was 70 nM; in [1], 70 nM; with HeLa-MaTu, 22 nM. Besides, the IC50 stood at 112 nM with Caco-2, 63 nM in the assay on HeLa-MaTu-ADR and 8 nM at CDK2/CycE.

As to `C[C@@H](Nc1nc(Nc2ccc(S(=N)(=O)C3CC3)cc2)ncc1C(F)(F)F)C(C)(C)O` (mixture of isomers) [Example 5-SI-2, (RS)—S-Cyclopropyl-S-(4-{[4-{[(R)-2-hydroxy-1,2-dimethylpropyl]amino}-5-(trifluoromethyl)-pyrimidin-2-yl]amino}phenyl)sulfoximide], the IC50 with HCT116 was found to be 28 nM; in the assay on MCF7 it was 34 nM; with DU145, 26 nM; at CDK1/CycB it was 9 nM; in the assay on NCI-H460, 33 nM; in the assay on HeLa it was 50 nM. Besides, the IC50 worked out at 82 nM in assay [1]; 10 nM in the assay on HeLa-MaTu; 42 nM in the assay on Caco-2; 24 nM in the assay with HeLa-MaTu-ADR; 8 nM on CDK2/CycE.

For the compound `CCS(=N)(=O)c1ccc(Nc2ncc(C(F)(F)F)c(N[C@H](C)[C@@H](C)O)n2)cc1` (mixture of isomers) [Example 6-SI-2, (RS)—S-Ethyl-S-(4-{[4-{[(1R,2R)-2-hydroxy-1-methylpropyl]amino}-5-(trifluoromethyl)-pyrimidin-2-yl]amino}phenyl)sulfoximide], the IC50 stood at 24 nM in the assay with HCT116; 26 nM with MCF7; 197 nM in the assay with DU145 (Homo sapiens, DU-145, 96 h); 5 nM on CDK1/CycB; 24 nM in the assay on NCI-H460; 32 nM in the assay on HeLa. Also, the IC50 in assay [1] was 71 nM; in the assay with HeLa-MaTu (Homo sapiens, 96 h), 10 nM; in the assay with Caco-2, 26 nM; in the assay with HeLa-MaTu-ADR (Homo sapiens, 96 h), 18 nM; at CDK2/CycE, 5 nM.

As for `C[C@@H](O)[C@@H](C)Oc1nc(Nc2ccc(S(C)(=N)=O)cc2)ncc1C(F)(F)F` (single isomer, unassigned) [Example 2-SI-1], the IC50 on CDK1/CycB stood at 5 nM; in assay [1], 84 nM; in the assay with HeLa-MaTu (Homo sapiens, 96 h) it was 12 nM; on CDK2/CycE, 6 nM.

With `C[C@@H](O)[C@@H](C)Nc1nc(Nc2ccc(S(C)(=N)=O)cc2)ncc1C(F)(F)F` (single isomer, unassigned) [Example 8-SI-1], the IC50 came out at 44 nM in the assay on MCF7 (Homo sapiens, MCF7, 96 h); 11 nM on CDK1/CycB; 30 nM in the assay with NCI-H460 (Homo sapiens, NCI-H460, 96 h); 116 nM in [1]; 14 nM in the assay with HeLa-MaTu (Homo sapiens, 96 h); 32 nM in the assay with Caco-2 (Homo sapiens, Caco-2, 96 h). Besides, the IC50 was 30 nM with HeLa-MaTu-ADR (Homo sapiens, 96 h) and 6 nM on CDK2/CycE.

Consider `C[C@@H](Nc1nc(Nc2ccc(S(C)(=N)=O)cc2)ncc1C(F)(F)F)C(C)(C)O` (single isomer, unassigned) [Example 9-SI-1], for which the IC50 on CDK1/CycB was determined as 4 nM; in assay [1], 158 nM; with HeLa-MaTu (Homo sapiens, 96 h), 20 nM; at CDK2/CycE, 5 nM.
